Reference: patent US9023882B2, “5-membered nitrogen containing heterocyclic derivatives and pharmaceutical compositions comprising the same” (Kissei Pharmaceutical Co., Ltd., priority 2007, dated 2015)

Target: Xanthine oxidase (from bovine milk, Sigma) (Bos taurus (Bovine), UniProt P80457)
Test: Xanthine oxidase inhibitory activity
Format: biochemical
Conditions: 100 μM xanthine final, absorbance at 290 nm
Description: (1) Preparation of Test Compounds
Test compounds were dissolved in DMSO (Wako) at 40 mM concentration and then diluted to intended concentrations with phosphate-buffered saline (PBS).
(2) Method for Measurement
Xanthine oxidase (from bovine milk, Sigma) was prepared with phosphate-buffered saline (PBS) at 0.02 units/mL, and then the solution was added to 96 well plates at 50 μL/well. In addition, test compounds diluted with PBS were added at 50 μL/well. Xanthine (Wako) at 200 μM prepared with PBS was added at 100 μL/well, and the reaction was conducted for 10 minutes at room temperature. Absorbance at 290 nm was measured using a microplate reader SpectraMax Plus 384 (Molecular device). The absorbance under a condition without xanthine is 0%, and control without test compounds is 100%. Fifty % inhibitory concentration of a test compound (IC50) was calculated (Tables 91 to 92). Ex. No in the table indicates Example number.

Sequence of Xanthine oxidase (from bovine milk, Sigma) (P80457 whole entry): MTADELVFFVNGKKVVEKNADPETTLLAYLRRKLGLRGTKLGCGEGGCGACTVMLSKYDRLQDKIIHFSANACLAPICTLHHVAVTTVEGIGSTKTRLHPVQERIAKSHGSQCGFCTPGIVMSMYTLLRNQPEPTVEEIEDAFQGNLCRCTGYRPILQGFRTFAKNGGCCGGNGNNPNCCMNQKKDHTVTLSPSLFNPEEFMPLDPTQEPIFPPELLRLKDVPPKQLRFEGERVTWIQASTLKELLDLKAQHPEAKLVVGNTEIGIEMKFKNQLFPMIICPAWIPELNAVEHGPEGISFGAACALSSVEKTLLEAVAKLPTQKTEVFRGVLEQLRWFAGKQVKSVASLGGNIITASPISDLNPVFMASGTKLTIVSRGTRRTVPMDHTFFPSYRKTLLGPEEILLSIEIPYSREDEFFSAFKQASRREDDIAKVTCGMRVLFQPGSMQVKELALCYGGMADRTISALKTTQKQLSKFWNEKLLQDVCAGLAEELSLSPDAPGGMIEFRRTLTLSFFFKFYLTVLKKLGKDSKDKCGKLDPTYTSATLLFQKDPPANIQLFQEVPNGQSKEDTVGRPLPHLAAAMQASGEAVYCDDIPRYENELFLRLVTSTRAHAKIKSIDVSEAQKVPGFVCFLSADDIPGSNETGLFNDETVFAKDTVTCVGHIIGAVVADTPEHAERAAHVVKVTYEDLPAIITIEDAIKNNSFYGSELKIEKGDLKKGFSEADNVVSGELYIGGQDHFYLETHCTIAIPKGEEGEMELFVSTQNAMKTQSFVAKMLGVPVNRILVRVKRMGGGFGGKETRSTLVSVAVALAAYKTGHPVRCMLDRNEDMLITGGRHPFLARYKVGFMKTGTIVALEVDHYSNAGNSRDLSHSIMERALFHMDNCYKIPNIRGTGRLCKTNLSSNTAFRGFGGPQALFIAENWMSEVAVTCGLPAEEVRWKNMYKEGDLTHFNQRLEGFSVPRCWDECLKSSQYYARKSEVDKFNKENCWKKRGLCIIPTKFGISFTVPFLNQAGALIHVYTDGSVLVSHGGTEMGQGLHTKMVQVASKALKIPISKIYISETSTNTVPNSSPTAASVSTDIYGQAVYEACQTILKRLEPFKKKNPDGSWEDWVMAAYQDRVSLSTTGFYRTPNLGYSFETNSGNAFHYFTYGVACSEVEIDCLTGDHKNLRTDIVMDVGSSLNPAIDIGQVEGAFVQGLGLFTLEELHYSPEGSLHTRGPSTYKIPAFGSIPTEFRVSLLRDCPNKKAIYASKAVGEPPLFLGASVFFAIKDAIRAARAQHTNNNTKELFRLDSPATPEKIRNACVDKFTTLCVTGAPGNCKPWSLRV

Row | IC50 [nM] | Structure (SMILES)
1 | 19.9 | N#Cc1cn(-c2cc(C(=O)O)ccn2)cc1C1=CCCCC1 [Example 370]
2 | 6.6 | CCOC(=O)c1cn(-c2ccc(C(=O)O)c(O)c2)cc1C(F)(F)F [Example 298]
3 | 27.6 | N#Cc1cn(-c2ccc(C(=O)O)c(O)c2)cc1-c1cc2ccccc2o1 [Example 290]
4 | 1.7 | N#Cc1cn(-c2ccc(C(=O)O)c(O)c2)cc1-c1ccco1 [Example 356]
5 | 29.3 | COc1ccccc1-c1cn(-c2cc(C(=O)O)ccn2)cc1C#N [Example 366]
6 | 10.1 | N#Cc1cn(-c2ccc(C(=O)O)c(O)c2)cc1-c1cc(F)ccc1F [Example 277]
7 | 5.2 | N#Cc1cn(-c2ccc(C(=O)O)c(O)c2)cc1-c1nccs1 [Example 348]
8 | 66.7 | N#Cc1ccn(-c2ccc(C(=O)O)c(O)c2)n1 [Example 354]
9 | 16.8 | CC(C)Oc1ccc(-c2cn(-c3ccc(C(=O)O)c(O)c3)cc2C#N)cc1 [Example 346]
10 | 6.5 | N#Cc1cn(-c2ccc(C(=O)O)c(O)c2)cc1-c1cccc2c1OCO2 [Example 322]
11 | 10 | CCCOc1cccc(-c2cn(-c3ccc(C(=O)O)c(O)c3)cc2C#N)c1 [Example 341]
12 | 17 | N#Cc1cn(-c2ccc(C(=O)O)c(O)c2)cc1-c1ccc(C(F)(F)F)cc1 [Example 318]

Same assay, conditions: 0.02 units/mL, xanthine 200 μM, 10 minutes at room temperature, absorbance at 290 nm

Row | IC50 [nM] | Structure (SMILES)
13 | 49.1 | N#Cc1cn(-c2ccc(C(=O)O)cc2)cc1-c1ccccc1OCc1ccc(F)cc1 [Example 172]
14 | 14.6 | Cc1ccc(-c2cn(-c3ccc(C(=O)O)c(O)c3)cc2C#N)c(C)c1 [Example 273]
15 | 7.1 | N#Cc1cn(-c2ccc(C(=O)O)cc2)cc1OCc1ccccc1 [Example 18, 4-(3-Cyano-4-benzyloxypyrrole-1-yl)benzoic acid]
16 | 10.7 | N#Cc1cn(-c2ccc(C(=O)O)cc2)cc1C(=O)c1ccccc1 [Example 224]
17 | 2.8 | CCCCCc1cn(-c2ccc(C(=O)O)cc2)cc1C#N [Example 245]
18 | 7.3 | N#Cc1cn(-c2ccc(C(=O)O)c(O)c2)cc1-c1cccc(F)c1 [Example 265]
19 | 55.1 | N#Cc1cn(-c2ccc(C(=O)O)cc2)cc1-c1cccc(-c2ccccc2)c1 [Example 162]
20 | 31.9 | N#Cc1cn(-c2ccc(C(=O)O)cc2)cc1-c1ccccc1-c1ccccc1 [Example 161]
21 | 5 | N#Cc1cn(-c2ccc(C(=O)O)cc2)cc1-c1cccc(CO)c1 [Example 219]
22 | 11.6 | N#Cc1cn(-c2ccc(C(=O)O)c(O)c2)cc1-c1ccc(F)cc1F [Example 267]
23 | 17.1 | CCCCc1c(C#N)cn(-c2ccc(C(=O)O)cc2)c1C [Example 2, 4-(3-Butyl-4-cyano-2-methylpyrrole-1-yl)benzoic acid]
24 | 52.2 | N#Cc1cn(-c2ccc(C(=O)O)cc2)cc1-c1ccc(Oc2ccccc2)cc1 [Example 166]
25 | 4 | COCCOc1cn(-c2ccc(C(=O)O)cc2)cc1C#N [Example 234]
26 | 56.8 | Cc1ccc(COc2ccccc2-c2cn(-c3ccc(C(=O)O)cc3)cc2C#N)cc1 [Example 169]
27 | 4.6 | N#Cc1cccc(-c2cn(-c3ccc(C(=O)O)cc3)cc2C#N)c1 [Example 211]
28 | 5.4 | N#Cc1ccc(-c2cn(-c3ccc(C(=O)O)cc3)cc2C#N)cc1 [Example 212]
29 | 63.4 | N#Cc1cn(-c2ccc(C(=O)O)cc2)cc1-c1cccc(OCc2ccccc2F)c1 [Example 189]
30 | 6.6 | N#Cc1cn(-c2ccc(C(=O)O)cc2F)cc1-c1ccccc1 [Example 203]
31 | 33.2 | CC(C)n1cc(-c2cn(-c3ccc(C(=O)O)cc3)cc2C#N)c2ccccc21 [Example 252]
32 | 19.7 | CN(C)C(=O)c1cn(-c2ccc(C(=O)O)cc2)cc1C#N [Example 226]
33 | 132 | Cc1ccc(COc2cccc(-c3cn(-c4ccc(C(=O)O)cc4)cc3C#N)c2)cc1 [Example 188]
34 | 37.5 | N#Cc1cn(-c2ccc(C(=O)O)cc2)cc1-c1ccccc1OCc1ccccc1F [Example 170]
35 | 16.8 | CCOCCOc1ccccc1-c1cn(-c2ccc(C(=O)O)cc2)cc1C#N [Example 213]
36 | 5.8 | COCOc1cccc(-c2cn(-c3ccc(C(=O)O)cc3)cc2C#N)c1 [Example 144]
37 | 39.8 | N#Cc1cn(-c2ccc(C(=O)O)cc2)cc1-c1ccccc1OCc1cccc(F)c1 [Example 171]
38 | 7.2 | CNC(=O)c1cn(-c2ccc(C(=O)O)cc2)cc1C#N [Example 225]
39 | 33.8 | N#Cc1cn(-c2ccc(C(=O)O)cc2)cc1-c1ccc(OCc2ccccc2)cc1 [Example 157]
